Data published in ChEMBL document CHEMBL3091332, “Recycling antimalarial leads for cancer: Antiproliferative properties of N-cinnamoyl chloroquine analogues” (Bioorg Med Chem Lett, 2013).

Columns and labels:
[1] = Antiproliferative activity against human HFF1 cells after 2 days by sulforhodamine B assay; assay type: cell-based, HFF-1
MCF7 = experiment: Antiproliferative activity against human MCF7 cells after 2 days by sulforhodamine B assay; assay type: functional; settings: MCF7, 48 h
[2] = Antiproliferative activity against human MKN28 cells after 2 days by sulforhodamine B assay; assay type: functional; settings: MKN-28, 48 h
Caco-2 = experiment: Antiproliferative activity against human Caco2 cells after 2 days by sulforhodamine B assay; assay type: functional; settings: Caco-2, 48 h
[3] = biological target: Receptor tyrosine-protein kinase erbB-2 (Homo sapiens, UniProt P04626); experiment: Inhibition of human HER2
Receptor tyrosine-protein kinase erbB-2, sequence (P04626 whole entry): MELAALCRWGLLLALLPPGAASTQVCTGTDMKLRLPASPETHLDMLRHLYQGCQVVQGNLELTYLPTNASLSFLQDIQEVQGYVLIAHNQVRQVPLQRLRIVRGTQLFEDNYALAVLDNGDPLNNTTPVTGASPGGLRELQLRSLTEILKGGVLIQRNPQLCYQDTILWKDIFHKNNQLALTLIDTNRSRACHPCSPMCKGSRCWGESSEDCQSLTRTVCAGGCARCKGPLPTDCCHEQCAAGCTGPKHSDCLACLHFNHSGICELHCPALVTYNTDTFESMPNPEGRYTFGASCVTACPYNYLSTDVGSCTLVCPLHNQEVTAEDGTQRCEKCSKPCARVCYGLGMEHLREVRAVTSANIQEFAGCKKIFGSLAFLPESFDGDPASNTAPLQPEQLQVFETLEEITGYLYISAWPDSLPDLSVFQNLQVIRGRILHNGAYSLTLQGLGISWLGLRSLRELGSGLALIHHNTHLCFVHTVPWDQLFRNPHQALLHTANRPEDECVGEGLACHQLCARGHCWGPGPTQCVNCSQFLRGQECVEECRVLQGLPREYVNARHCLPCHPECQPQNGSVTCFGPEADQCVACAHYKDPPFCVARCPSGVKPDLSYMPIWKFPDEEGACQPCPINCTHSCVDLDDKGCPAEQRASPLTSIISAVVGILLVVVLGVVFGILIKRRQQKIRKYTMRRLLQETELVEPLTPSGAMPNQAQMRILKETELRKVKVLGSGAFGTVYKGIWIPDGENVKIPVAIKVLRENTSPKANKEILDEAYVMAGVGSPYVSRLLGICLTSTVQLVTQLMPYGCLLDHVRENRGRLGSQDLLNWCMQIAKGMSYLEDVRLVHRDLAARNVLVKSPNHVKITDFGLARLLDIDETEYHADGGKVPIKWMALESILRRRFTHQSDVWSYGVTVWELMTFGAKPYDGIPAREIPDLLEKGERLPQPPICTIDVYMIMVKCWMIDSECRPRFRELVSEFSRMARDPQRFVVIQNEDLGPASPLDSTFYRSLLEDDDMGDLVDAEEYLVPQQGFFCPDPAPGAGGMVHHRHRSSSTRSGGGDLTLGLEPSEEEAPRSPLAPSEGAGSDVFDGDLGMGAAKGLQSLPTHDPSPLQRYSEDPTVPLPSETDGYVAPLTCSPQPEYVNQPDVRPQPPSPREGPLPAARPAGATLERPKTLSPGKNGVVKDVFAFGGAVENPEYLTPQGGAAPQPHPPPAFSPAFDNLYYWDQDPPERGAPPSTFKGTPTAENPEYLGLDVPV

GI50 (MCF7)	GI50 (Caco-2)	IC50 [3]	Compound	GI50 at 48 h [1]	GI50 [2]
8.09 µM	11.9 µM		CC(C)c1ccc(/C=C/C(=O)NCCCCNc2ccnc3cc(Cl)ccc23)cc1	> 100 µM	22.3 µM
13.3 µM	11.9 µM		O=C(/C=C/c1ccccc1[N+](=O)[O-])NCCCCNc1ccnc2cc(Cl)ccc12	> 100 µM	15.1 µM
59.3 µM	19.3 µM		O=C(/C=C/c1cccc([N+](=O)[O-])c1)NCCCCNc1ccnc2cc(Cl)ccc12	> 100 µM	16.2 µM
32.7 µM	29.6 µM		CC(C)c1ccc(/C=C/C(=O)NCCCCN2CCOCC2)cc1	> 100 µM	72.5 µM
64.3 µM	38.7 µM		CCN(CC)CCCC(C)Nc1ccnc2cc(Cl)ccc12 (stereo unspecified) [CHLOROQUINE]	> 100 µM	44.4 µM
5.08 µM	17.3 µM		COc1ccc(/C=C/C(=O)OCCCCNc2ccnc3cc(Cl)ccc23)cc1	75.2 µM	6.6 µM
20.1 µM	9.16 µM		CC(C)c1ccc(/C=C/C(=O)NCCCCCNc2ccnc3cc(Cl)ccc23)cc1	> 100 µM	14 µM
		0.059 µM	CCOc1cc2ncc(C#N)c(Nc3ccc(OCc4ccccn4)cc3)c2cc1NC(=O)/C=C/CN(C)C		
14.8 µM	24.1 µM		O=C(/C=C/c1ccccc1)NCCCCNc1ccnc2cc(Cl)ccc12	> 100 µM	16.2 µM
14.8 µM	25.4 µM		O=C(/C=C/c1cccc(F)c1)NCCCCNc1ccnc2cc(Cl)ccc12	> 100 µM	15.3 µM
25.2 µM	30.7 µM		COc1ccc(/C=C/C(=O)NCCCCNc2ccnc3cc(Cl)ccc23)cc1	> 100 µM	16.9 µM
77.1 µM	> 100 µM		COc1ccc(/C=C/C(=O)NCCCCNc2ccncc2)cc1	> 100 µM	84.5 µM
0.31 µM	0.32 µM		COc1cccc2c1C(=O)c1c(O)c3c(c(O)c1C2=O)C[C@@](O)(C(=O)CO)C[C@@H]3O[C@H]1C[C@H](N)[C@H](O)[C@H](C)O1 [DOXORUBICIN]	> 400 µM	0.24 µM
5.24 µM	6.75 µM		CC(C)c1ccc(/C=C/C(=O)NCCCCNc2ccnc3ccccc23)cc1	39.1 µM	5.55 µM
12.5 µM	15 µM		O=C(/C=C/c1ccc(F)cc1)NCCCCNc1ccnc2cc(Cl)ccc12	> 100 µM	11.8 µM
5.24 µM	44.1 µM		O=C(/C=C/c1ccc(F)cc1)NCCCNc1ccnc2cc(Cl)ccc12	44.8 µM	34.7 µM
